Source: ChEMBL document CHEMBL3785088, “Synthesis, anti-inflammatory, analgesic and COX-1/2 inhibition activities of anilides based on 5,5-diphenylimidazolidine-2,4-dione scaffold: Molecular docking studies” (Eur J Med Chem, 2016)

Legend:
Rattus norvegicus = assay: Antiinflammatory activity in ip dosed Sprague-Dawley rat assessed as inhibition of carrageenan-induced foot paw edema measured 2 hrs post carrageenan challenge by plethysmometry; type: functional
Mus musculus = assay: Analgesic activity in ip dosed albino Swiss mouse assessed as reduction in licking and blowing response at 58 deg C measured after 60 mins by hot plate test; type: functional; conditions: 1 h
[1] = target: T1, Prostaglandin G/H synthase 1 (Ovis aries, UniProt P05979); assay: Inhibition of ovine COX1 preincubated for 5 mins followed by addition of arachidonic acid as substrate measured after 2 mins by enzyme immunoassay
T1 sequence (P05979 whole entry): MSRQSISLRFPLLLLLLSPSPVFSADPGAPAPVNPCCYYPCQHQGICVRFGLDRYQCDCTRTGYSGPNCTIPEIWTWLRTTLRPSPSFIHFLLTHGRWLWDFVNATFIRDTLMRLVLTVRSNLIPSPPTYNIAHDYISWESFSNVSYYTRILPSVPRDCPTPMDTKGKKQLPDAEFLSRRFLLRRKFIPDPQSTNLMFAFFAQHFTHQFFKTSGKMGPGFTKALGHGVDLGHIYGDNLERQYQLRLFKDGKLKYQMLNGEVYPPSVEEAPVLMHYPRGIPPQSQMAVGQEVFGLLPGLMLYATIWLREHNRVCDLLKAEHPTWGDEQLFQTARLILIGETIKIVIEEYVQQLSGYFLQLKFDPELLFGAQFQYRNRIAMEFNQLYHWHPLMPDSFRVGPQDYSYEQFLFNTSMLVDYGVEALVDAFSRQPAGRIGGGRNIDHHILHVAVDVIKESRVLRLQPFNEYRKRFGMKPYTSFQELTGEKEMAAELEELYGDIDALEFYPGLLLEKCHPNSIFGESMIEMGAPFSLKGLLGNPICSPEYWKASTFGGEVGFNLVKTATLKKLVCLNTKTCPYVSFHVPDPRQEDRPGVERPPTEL

Structure (SMILES)	ED50 (Rattus norvegicus) [mg/kg]	ED50 (Mus musculus) [mg/kg]	IC50 [1] [µM]
O=C(CN1C(=O)NC(c2ccccc2)(c2ccccc2)C1=O)N/N=C/c1ccccc1	> 200	–	–
COc1ccc(/C=N/NC(=O)CN2C(=O)NC(c3ccccc3)(c3ccccc3)C2=O)cc1	> 200	–	–
COc1ccc(C(=O)CN2C(=O)NC(c3ccccc3)(c3ccccc3)C2=O)cc1	155	184	70.5
NS(=O)(=O)c1ccc(NC(=O)CCN2C(=O)NC(c3ccccc3)(c3ccccc3)C2=O)cc1	75	40.3	> 100
COc1ccc(NC(=O)CN2C(=O)NC(c3ccccc3)(c3ccccc3)C2=O)cc1	120	86	> 100
O=C(CN1C(=O)NC(c2ccccc2)(c2ccccc2)C1=O)c1ccccc1	> 200	–	–
NS(=O)(=O)c1ccc(NC(=O)CN2C(=O)NC(c3ccccc3)(c3ccccc3)C2=O)cc1	97	66.2	> 100
COc1cc(CNC(=O)CN2C(=O)NC(c3ccccc3)(c3ccccc3)C2=O)cc(OC)c1OC	90	68.5	> 100
O=C(CCN1C(=O)NC(c2ccccc2)(c2ccccc2)C1=O)NCc1ccc(F)cc1	122	75	> 100
O=C(CN1C(=O)NC(c2ccccc2)(c2ccccc2)C1=O)Nc1ccccc1	> 200	–	–
O=C(CN1C(=O)NC(c2ccccc2)(c2ccccc2)C1=O)NCc1ccc(F)cc1	120	90.9	> 100
O=C(CCN1C(=O)NC(c2ccccc2)(c2ccccc2)C1=O)NCc1ccccc1	> 200	–	–
O=C(CN1C(=O)NC(c2ccccc2)(c2ccccc2)C1=O)Nc1ccc(F)cc1	129	119	> 100
COc1ccc(NC(=O)CCN2C(=O)NC(c3ccccc3)(c3ccccc3)C2=O)cc1	98	71.1	> 100
COc1ccc(/C=N/N2C(=O)NC(c3ccccc3)(c3ccccc3)C2=O)cc1	> 200	–	–
O=C(CN1C(=O)NC(c2ccccc2)(c2ccccc2)C1=O)N/N=C/c1ccc(F)cc1	> 200	–	–
O=C(CN1C(=O)NC(c2ccccc2)(c2ccccc2)C1=O)NCc1ccccc1	> 200	–	–
COc1ccc(CNC(=O)CCN2C(=O)NC(c3ccccc3)(c3ccccc3)C2=O)cc1	112	122	> 100
COc1ccc(CNC(=O)CN2C(=O)NC(c3ccccc3)(c3ccccc3)C2=O)cc1	109	67.3	> 100
O=C(CN1C(=O)NC(c2ccccc2)(c2ccccc2)C1=O)c1ccc(F)cc1	156	142	70.5
NS(=O)(=O)c1ccc(CNC(=O)CN2C(=O)NC(c3ccccc3)(c3ccccc3)C2=O)cc1	75	54.6	> 100
Cc1ccc(-c2cc(C(F)(F)F)nn2-c2ccc(S(N)(=O)=O)cc2)cc1 [CELECOXIB]	86.4	74.1	–
O=C(CCN1C(=O)NC(c2ccccc2)(c2ccccc2)C1=O)Nc1ccccc1	> 200	–	–
O=C(CCN1C(=O)NC(c2ccccc2)(c2ccccc2)C1=O)Nc1ccc(F)cc1	123	80.1	> 100
